Measurements as given in patent US20190030139A1, “USP10 MODULATION OF AMPK AND MTOR” (MAYO FOUNDATION FOR MEDICAL EDUCATION AND RESEARCH, priority 2016, published 2019).

Legend:
AMPK [1] = test: Immunoblot of AMPK activation in HCT116 cells treated with Spautin-1; type: cell-based; settings: indicated concentration of Spautin-1, immunoblot (FIG. 1I)
Description: FIG. 1A is a picture of an immunoblot showing the effect of USP10 knockdown on AMPK activation. HCT116 cells were infected with lentivirus encoding the indicated shRNAs. Cell lysates were immunoblotted as indicated. FIGS. 1B and 1C are a picture (FIG. 1B) and a graph (FIG. 1C) showing Oil-Red-O staining of HCT116 cells with or without shRNA knockdown of USP10. Control or USP10 knockdown HCT116 cells were incubated in medium supplemented with 200 μM sodium oleate overnight (20 hours) and fixed with formalin. The intracellular lipid droplet abundance was assessed by Oil-Red-O staining. The results represent the means (±SEM) of three independent experiments. **, p<0.01. FIG. 1D is a graph plotting lactate concentration in HCT116 cells. Lactate production was measured after incubation of control and USP10 knockdown HCT116 cells in medium for 48 hours. […] FIG. 1E is a graph plotting relative expression of aldoa, ldha, and pdkl mRNA in control or USP10 knockdown HCT116 cells, as determined by qPCR. Transcript levels were determined relative to actin mRNA levels, and normalized relative to control cells. […] The intracellular lipid droplet abundance was assessed by Oil-Red-O staining. […] The relative expression of aldoa, ldha, and pdkl mRNA in the indicated cells was determined by qPCR. Transcript levels were determined relative to actin mRNA levels, and normalized relative to control cells. […]

cancer cells = test: Survival of cancer cells with and without USP10 after treatment with everolimus; type: cell-based
Excerpt: FIGS. 12A and 12B are pictures of immunoblots from co-immuno-precipitation assays showing that USP10 interacts with mTOR. […] FIG. 12D is a graph plotting survival of cancer cells with and without USP10, after treatment with the mTOR inhibitor, everolimus. […] FIG. 12E is a graph plotting survival of cancer cells with and without USP10 knockdown by shRNA, after treatment with everolimus.

Ub-AMC = test: In vitro deubiquitinase enzymatic assay with Ub-AMC; type: biochemical; settings: purified USP10 incubated with or without active AMPK (FIG. 9A)
Description: In vitro deubiquitinase enzymatic assay—In vitro enzymatic assays using ubiquitin-7-amido-4-methylcoumarin (Ub-AMC; U-550; Boston Biochem) were performed in 50-100 μl reaction buffer (20 mM HEPES-KOH [pH 7.8], 20 mM NaCl, 0.1 mg/ml ovalbumin [A7641; Sigma], 0.5 mM EDTA, and 10 mM DTT) at 25° C. Fluorescence was monitored in an INFINITE® M1000 PRO Fluorometer (TECAN).

AMPK [2] = test: AMPK in vitro kinase assay (32P incorporation into peptides); type: biochemical
Description: AMPK in vitro kinase assay—Purified AMPK (Upstate Biotechnology) was incubated with various substrates (0.5 μg) in kinase reaction buffer (15 mM HEPES, pH 7.0, 1 mm dithiothreitol, 18.75 mM MgCl2, 1.25 mM EGTA, and 125 μM ATP and 12.5 μCi of radiolabeled ATP, with or without 150 μM AMP, at 30° C. for 30 minutes. The product was separated by SDS-PAGE and subjected to autoradiography. Phosphorylation was detected by incorporation of radiolabeled [γ-32P] ATP. To study the stoichiometry of phosphorylation of the USP10 S76 [TLPRTPSYSISST (SEQ ID NO:19), synthesized by Peptide 2.0] and SAMS (Abcam) peptides by AMPK, the peptides (20 μM) were individually incubated in 100 μl of reaction buffer at 30° C. Aliquots (10 μl) were removed at various times to measure ^32P incorporation.

ubiquitinated AMPKα = test: In vitro deubiquitination of AMPKα; type: biochemical; settings: bacterially-expressed USP10, ubiquitinated AMPKα substrate (FIGS. 3H and 4C)
Excerpt: In vitro deubiquitination of AMPKα—To prepare ubiquitinated AMPKα as the substrate for the in vitro deubiquitination assay, HCT116 cells were transfected with both HA-Ub and FLAG-AMPKα. […] Following extensive washing with the FLAG-lysis buffer, proteins were eluted with FLAG-peptides (Sigma). The recombinant His-USP10 and USP10CA polypeptides were expressed in BL21 cells and purified with the His-tag purification column (Novagen). For the in vitro deubiquitination assay, ubiquitinated AMPK protein was incubated with recombinant USP10 in a deubiquitination buffer (50 mM Tris-HCl pH 8.0, 50 mM NaCl, 1 mM EDTA, 10 mM DTT, 5% glycerol) overnight at 16° C.

## Fc1ccc(CNc2ncnc3ccc(F)cc23)cc1 [Spautin-1]
AMPK [1]
  AMPK activation: largely inhibited

## CO[C@H]1C[C@@H]2CC[C@@H](C)[C@@](O)(O2)C(=O)C(=O)N2CCCC[C@H]2C(=O)O[C@H]([C@H](C)C[C@@H]2CC[C@@H](OCCO)[C@H](OC)C2)CC(=O)[C@H](C)/C=C(\C)[C@@H](O)[C@@H](OC)C(=O)[C@H](C)C[C@H](C)/C=C/C=C/C=C/1C [everolimus]
Cancer cells; USP10 shRNA knockdown vs control shRNA (FIG. 12E)
  survival of cancer cells: greater effect on survival of USP10 knockdown cells than on cells treated with a control shRNA
Cancer cells; cells with vs without USP10 (FIG. 12D)
  survival of cancer cells: decreased in the absence of USP10

## S76A mutant: USP10 with S76 mutated to Ala
Ub-AMC
  deubiquitinase activity toward Ub-AMC: remained low

## USP10 peptide: synthesized USP10 S76 peptide TLPRTPSYSISST (SEQ ID NO:19) (listed as Homo sapiens)
AMPK [2]; after 30 minutes of incubation, calculated from FIG. 8D data (FIG. 8E)
  maximal stoichiometry of phosphorylation by AMPK: 0.46±0.04 mol/mol
AMPK [2]; peptide 20 μM, 30° C., mean ±SEM of three experiments (FIG. 8D)
  initial rate of phosphorylation by AMPK: 155±36 pmol/min/reaction mix

## WT USP10: recombinant wild type USP10 deubiquitinase (SEQ ID NO:2), bacterially expressed
Ubiquitinated AMPKα
  deubiquitination of AMPKα in vitro: removed ubiquitin chain from AMPKα

## phosphorylated USP10: USP10 phosphorylated using active AMPK in vitro
Ub-AMC
  deubiquitinase activity toward Ub-AMC: much higher activity toward Ub-AMC
